Test results from patent publication US11254700B2, “GSK-3β inhibitors and use thereof in methods of treatment” (UNIVERSITY OF HAWAII, priority 2017, dated 2022).
Entries after “also recorded” stand apart in the source; their conditions may differ.

What was measured:
IgG anti-Aβ42 = experiment: Anti-Aβ immunoglobulin (IgG) in serum by ELISA; assay type: in vivo, mouse; conditions: APP/PS1 mice, 60-day intragastric, vs model group
Description: The backgrounds of all mice (APP/PS1 dual transgenic mice and wild-type mice with littermates) were C57/B6. Transgenic mice were randomly divided into three groups (n=20 for each group), and wild-type mice were used as controls (n=20). The control group and one group of transgenic mice (model group) were given sterilized ultrapure water, and the other two groups of transgenic mice received low- and high-dose Isoorientin (20 and 50 mg/kg, respectively) via intragastric administration for 60 days. Throughout the study-period, animals were housed in a controlled environment (temperature, 22° C.; humidity, 50-60%, 12-hour light/12-hour dark schedules), with free access to rodent chow and water. After a Morris water maze test, mice were perfused with cold phosphate-buffered saline (PBS), brain tissues were dissected and kept frozen at −80° C. until further analysis. […] Blood was collected from mice. […] The anti-Aβ immunoglobulin (IgG) was measured using an enzyme-linked immunosorbent assay (ELISA) kit according to the manufacturer's protocol (see also, Song, et al. (2017) PLoS One 12(1):e0169509). […] The optical densities at 450 nm were analyzed using a microreader (TECAN, Switzerland) and linear regression was confirmed by ab126468, polyclonal anti-amyloid fibril antibody, as positive internal control. […]

APP/PS1 transgenic mice = experiment: Morris water maze test; assay type: in vivo, mouse
Description: The backgrounds of all mice (APP/PS1 dual transgenic mice and wild-type mice with littermates) were C57/B6. Transgenic mice were randomly divided into three groups (n=20 for each group), and wild-type mice were used as controls (n=20). […] Throughout the study-period, animals were housed in a controlled environment (temperature, 22° C.; humidity, 50-60%, 12-hour light/12-hour dark schedules), with free access to rodent chow and water. After a Morris water maze test, mice were perfused with cold phosphate-buffered saline (PBS), brain tissues were dissected and kept frozen at −80° C. until further analysis. […] Isoorientin was dissolved in sterilized, ultrapure water, sonicated for 20 minutes at a concentration of 5 mg/ml and 2.5 mg/ml, and stored at 4° C. Isoorientin was administered by oral gavage. The required amount of solution was returned to room temperature before intragastric administration. […] The maze was composed of a circular pool (120 cm in diameter) filled with water (22±2° C.) to a height of 30 cm. […] Mice were given day of adaptive training followed by trials on six consecutive days. Each trial started by gently placing the mouse into the water with its head toward the pool wall of any of the three quadrants without the platform. If an animal found the platform within 60 seconds, it was left on the platform for 20 seconds. […] On the last day of Morris water maze test, the platform was removed and the number of times that the mice crossed the location of the original platform was quantified. Between trials, all mice were placed back in their home cages using a spoon-net to avoid direct contact with the experimenter. All trials were tracked automatically by a digital tracking system (Feidi Biological Technology) assessing path length, swimming speed, and latency to escape from the water.

amyloid plaques = experiment: Thioflavin-S staining of brain plaques; assay type: in vivo, mouse; parameters: dose or concentration left out as unconfirmed; conditions: more pronounced with increasing dose
Description: The backgrounds of all mice (APP/PS1 dual transgenic mice and wild-type mice with littermates) were C57/B6. Transgenic mice were randomly divided into three groups (n=20 for each group), and wild-type mice were used as controls (n=20). […] Throughout the study-period, animals were housed in a controlled environment (temperature, 22° C.; humidity, 50-60%, 12-hour light/12-hour dark schedules), with free access to rodent chow and water. After a Morris water maze test, mice were perfused with cold phosphate-buffered saline (PBS), brain tissues were dissected and kept frozen at −80° C. until further analysis. […] The brain tissue was then embedded in an OCT agent and placed at −80° C. for storage until use. […] The Thio-S staining procedure was according to known methods (Maiti, et al. (2016) Histochem. Cell Biol. 146(5):609-625). Briefly, Thio-S solution at 0.1% (w/v) was prepared by dissolving 0.1 gram of Thioflavin-S(Sigma-Aldrich) in 50% ethanol (v/v). The tissue sections were washed three times with PBS for five minutes each time. The sections were incubated with 0.1% Thio-S for 10 minutes, dipping them three times in 50% ethanol (v/v) for 10 minutes each time, and finally washing once in PBS, before being mounted, as described above. The sections were visualized using a fluorescence microscope (Leica, Germany), with excitation/emission filters (480/550 nm).

in vitro = conditions: PAMPA, 5 h, 20 μM, pH 7.4
Description: Samples were run in quadruplicate.
Oral administration is noninvasive and is preferred for chronical diseases such as Alzheimer's disease and other CNS disorders. […] In the PAMPA model, the amount of target compounds diffused from a donor compartment to an acceptor compartment through a tri-layer phospholipid pre-coated membrane are measured to assess oral-absorption potential of drug candidates. In the present study, 1, 4, 9, 17, 21 and 30 were evaluated with the PAMPA assay.

In the case of `O=c1cc(-c2ccc(O)c(O)c2)oc2cc(O)c([C@@H]3O[C@H](CO)[C@@H](O)[C@H](O)[C@H]3O)c(O)c12` [Compound 1, isoorientin], the “IgG anti-Aβ42 in serum” value (IgG anti-Aβ42) was “decreased; also recorded: reduced”, the platform cross frequencies (APP/PS1 transgenic mice; all doses, vs untreated APP/PS1) was “significantly increased” and the escape latency (APP/PS1 transgenic mice; intragastric, 60 days, all doses, vs untreated APP/PS1) was “significantly reduced the escape latency”. The cognitive deficit (APP/PS1 transgenic mice; oral, 25-mg/kg) was “significant alleviation of cognitive deficit”, the thioflavin-S-positive plaques (amyloid plaques) was “reduced” and the Pe (in vitro) was 0.51 ± 0.01 ×10^−6 cm/s. For the same compound, the “R (percent recovery)” value (in vitro) was 48%.
